Measured values as given in patent US10364245B2 (CHIESI FARMACEUTICI S.p.A., priority 2017, dated 2019).
Structures can show the parent of a compound that is named as a salt.

Key:
[1] = system: Peripheral Blood Mononuclear Cells (PBMCs), TNFα release; assay: LPS-stimulated PBMC TNFα release assay; assay type: cell-based; conditions: human PBMC, LPS (10 ng/ml), 18 h, compound 1 h before LPS; read-out: LPS-stimulated PBMC TNFα release inhibition
Outline: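 TNFα in cell-free supernatant, read on MSD plates, gave % inhibition curves and IC50 (≥3 separate experiments). Healthy-donor PBMCs had 1 h compound exposure at 37 °C in 1% FBS medium, then 18 h stimulation with 10 ng/ml LPS, after a 3 h serum-free rest.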

p38 alpha = molecular target: T1, p38 alpha (Homo sapiens, UniProt Q16539); assay: P38 alpha enzyme inhibition assay (Alphascreen kinase activity assay); assay type: biochemical; conditions: 100 pM p38 alpha, 2 hours preincubation at 25° C., 250 μM ATP, ATF-2 fusion protein; read-out: p38α inhibition
T1 construct: purchased Invitrogen PV3304
Outline: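 Phosphorylation of ATF-2 fusion protein (0.3 μg/ml) read by AlphaScreen with anti-phospho-ATF2 antibody after 1 h kinase reaction at 25 °C, initiated by 250 μM ATP. Compounds first incubated 2 h at 25 °C with 100 pM p38 alpha in pH 7.5 HEPES buffer, 1% DMSO. IC50 derived from concentration-response data.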

T1 sequence (Q16539 whole entry, the tested form may be a part): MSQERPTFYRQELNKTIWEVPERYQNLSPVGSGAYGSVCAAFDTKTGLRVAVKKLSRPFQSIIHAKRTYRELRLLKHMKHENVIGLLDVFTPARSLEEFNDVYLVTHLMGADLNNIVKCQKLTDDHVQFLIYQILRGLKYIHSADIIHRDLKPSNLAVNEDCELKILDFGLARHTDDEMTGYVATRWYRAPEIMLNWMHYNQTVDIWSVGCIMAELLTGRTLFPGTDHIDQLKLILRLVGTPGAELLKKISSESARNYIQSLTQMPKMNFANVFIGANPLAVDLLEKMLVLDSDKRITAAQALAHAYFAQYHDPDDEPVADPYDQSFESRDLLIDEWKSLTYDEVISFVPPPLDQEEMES

Row | IC50 (p38 alpha) [nM] | SMILES | IC50 [1] [nM]
1 | < 1 | CN1CCN(C(C)(C)c2nnc3ccc(O[C@@H]4CC[C@H](NC(=O)Nc5cc(C(=O)NCCO)nc(C(C)(C)C)c5)c5ccccc54)cn23)CC1 [Example 200, 6-(tert-Butyl)-N-(2-hydroxyethyl)-4-(3-((1S,4R)-4-((3-(2-(4-methylpiperazin-1-yl)propan-2-yl)-[1,2,4]triazolo[4,3-a]pyridin-6-yl)oxy)-1,2,3,4-tetrahydronaphthalen-1-yl)ureido)picolinamide formate salt] | > 5
2 | < 1 | CC[C@H](C)c1nnc2ccc(O[C@@H]3CC[C@H](NC(=O)Nc4cc(C(=O)NCCN(C)C)nc(C(C)(C)C)c4)c4ccccc43)cn12 [Example 201, 6-(tert-Butyl)-4-(3-((1S,4R)-4-((3-((S)-sec-butyl)-[1,2,4]triazolo[4,3-a]pyridin-6-yl)oxy)-1,2,3,4-tetrahydronaphthalen-1-yl)ureido)-N-(2-(dimethylamino)ethyl)-picolinamide formate salt] | 1 to 5
3 | 1 to 10 | CC[C@H](C)c1nnc2ccc(O[C@@H]3CC[C@H](NC(=O)Nc4cc(C(=O)NCC(C)(C)N(C)C)nc(C(C)(C)C)c4)c4ccccc43)cn12 [Example 202, 6-(tert-Butyl)-4-(3-((1S,4R)-4-((3-((S)-sec-butyl)-[1,2,4]triazolo[4,3-a]pyridin-6-yl)oxy)-1,2,3,4-tetrahydronaphthalen-1-yl)ureido)-N-(2-(dimethylamino)-2-methylpropyl)-picolinamide formate salt] | 1 to 5
4 | < 1 | CCN(CC)c1nnc2ccc(O[C@@H]3CC[C@H](NC(=O)Nc4cc(C(=O)NCC(C)(C)N(C)C)nc(C(C)(C)C)c4)c4ccccc43)cn12 [Example 204, 6-(tert-Butyl)-4-(3-((1S,4R)-4-((3-(diethylamino)-[1,2,4]triazolo[4,3-a]pyridin-6-yl)oxy)-1,2,3,4-tetrahydronaphthalen-1-yl)ureido)-N-(2-(dimethylamino)-2-methylpropyl)-picolinamide formate salt] | 1 to 5
5 | < 1 | CCN(C)CCNC(=O)c1cc(NC(=O)N[C@H]2CC[C@@H](Oc3ccc4nnc(N(CC)CC)n4c3)c3ccccc32)cc(C(C)(C)C)n1 [Example 205, 6-(tert-Butyl)-4-(3-((1S,4R)-4-((3-(diethylamino)-[1,2,4]triazolo[4,3-a]pyridin-6-yl)oxy)-1,2,3,4-tetra-hydronaphthalen-1-yl)ureido)-N-(2-(ethyl(methyl)amino)-ethyl)picolinamide formate salt] | 1 to 5
6 | < 1 | CCC(C)(C)c1nnc2ccc(O[C@@H]3CC[C@H](NC(=O)Nc4cc(C(=O)NCCN(C)C)nc(C(C)(C)C)c4)c4ccccc43)cn12 [Example 206, 6-(tert-butyl)-N-(2-(dimethylamino)ethyl)-4-(3-((1S,4R)-4-((3-(tert-pentyl)-[1,2,4]triazolo[4,3-a]pyridin-6-yl)oxy)-1,2,3,4-tetrahydronaphthalen-1-yl)ureido)picolinamide] | 1 to 5
7 | < 1 | CCC(CC)c1nnc2ccc(O[C@@H]3CC[C@H](NC(=O)Nc4cc(C(=O)NCCN(C)C)nc(C(C)(C)C)c4)c4ccccc43)cn12 [Example 207, 6-(tert-butyl)-N-(2-(dimethylamino)ethyl)-4-(3-((1S,4R)-4-((3-(pentan-3-yl)-[1,2,4]triazolo[4,3-a]pyridin-6-yl)oxy)-1,2,3,4-tetrahydronaphthalen-1-yl)ureido)picolinamide] | < 1
8 | < 1 | CN(CCO)CCNC(=O)c1cc(C(C)(C)C)cc(NC(=O)N[C@H]2CC[C@@H](Oc3ccc4nnc(C(C)(C)C)n4c3)c3ccccc32)n1 [Example 208, 4-(tert-butyl)-6-(3-((1S,4R)-4-((3-(tert-butyl)-[1,2,4]triazolo[4,3-a]pyridin-6-yl)oxy)-1,2,3,4-tetrahydronaphthalen-1-yl)ureido)-N-(2-((2-hydroxyethyl)(methyl)-amino)ethyl)picolinamide formate salt] | > 5
9 | < 1 | CC(C)(C)c1cc(NC(=O)N[C@H]2CC[C@@H](Oc3ccc4nnc(C(C)(C)C)n4c3)c3ccccc32)nc(C(=O)NCCN2CCCOCC2)c1 [Example 209, N-(2-(1,4-oxazepan-4-yl)ethyl)-4-(tert-butyl)-6-(3-((1S,4R)-4-((3-(tert-butyl)-[1,2,4]triazolo[4,3-a]pyridin-6-yl)oxy)-1,2,3,4-tetrahydronaphthalen-1-yl)ureido)picolinamide formate salt] | < 1
10 | < 1 | COC1CN(CCNC(=O)c2cc(C(C)(C)C)cc(NC(=O)N[C@H]3CC[C@@H](Oc4ccc5nnc(C(C)(C)C)n5c4)c4ccccc43)n2)C1 [Example 210, 4-(tert-butyl)-6-(3-((1S,4R)-4-((3-(tert-butyl)-[1,2,4]triazolo[4,3-a]pyridin-6-yl)oxy)-1,2,3,4-tetrahydronaphthalen-1-yl)ureido)-N-(2-(3-methoxyazetidin-1-yl)ethyl)picolinamide formate salt] | 1 to 5
11 | < 1 | CC(C)(C)c1cc(NC(=O)N[C@H]2CC[C@@H](Oc3ccc4nnc(C(C)(C)C)n4c3)c3ccccc32)nc(C(=O)NCCN2CCC(O)CC2)c1 [Example 211, 4-(tert-butyl)-6-(3-((1S,4R)-4-((3-(tert-butyl)-[1,2,4]triazolo[4,3-a]pyridin-6-yl)oxy)-1,2,3,4-tetrahydronaphthalen-1-yl)ureido)-N-(-(2-(4-hydroxypiperidin-1-yl)ethyl)picolinamide formate salt] | > 5
12 | < 1 | CN1CCC[C@@]1(C)c1nnc2ccc(O[C@@H]3CC[C@H](NC(=O)Nc4cc(NS(C)(=O)=O)nc(C(C)(C)C)c4)c4ccccc43)cn12 [Example 212, N-(6-(tert-Butyl)-4-(3-((1S,4R)-4-((3-((S)-1,2-dimethylpyrrolidin-2-yl)-[1,2,4]triazolo[4,3-a]pyridin-6-yl)oxy)-1,2,3,4-tetrahydronaphthalen-1-yl)ureido)pyridin-2-yl)methanesulfonamide] | 1 to 5
13 | < 1 | CCS(=O)(=O)Nc1cc(NC(=O)N[C@H]2CC[C@@H](Oc3ccc4nnc([C@]5(C)CCCN5C)n4c3)c3ccccc32)cc(C(C)(C)C)n1 [Example 213, N-(6-(tert-Butyl)-4-(3-((1S,4R)-4-((3-((S)-1,2-dimethylpyrrolidin-2-yl)-[1,2,4]triazolo[4,3-a]pyridin-6-yl)oxy)-1,2,3,4-tetrahydronaphthalen-1-yl)ureido)pyridin-2-yl)ethanesulfonamide] | 1 to 5
14 | 1 to 10 | CN(C)CCNC(=O)c1nc(NC(=O)N[C@H]2CC[C@@H](Oc3ccc4nnc([C@@H]5COCCN5C)n4c3)c3ccccc32)cc(C(C)(C)C)n1 [Example 214, 4-(tert-Butyl)-N-(2-(dimethylamino)ethyl)-6-(3-((1S,4R)-4-((3-((R)-4-methylmorpholin-3-yl)-[1,2,4]triazolo[4,3-a]pyridin-6-yl)oxy)-1,2,3,4-tetrahydronaphthalen-1-yl)ureido)pyrimidine-2-carboxamide] | > 5
15 | 1 to 10 | CN(CCO)CCNC(=O)c1nc(NC(=O)N[C@H]2CC[C@@H](Oc3ccc4nnc([C@@H]5COCCN5C)n4c3)c3ccccc32)cc(C(C)(C)C)n1 [Example 215, 4-(tert-Butyl)-N-(2-((2-hydroxyethyl)(methyl)amino)ethyl)-6-(3-((1S,4R)-4-((3-((R)-4-methylmorpholin-3-yl)-[1,2,4]triazolo[4,3-a]pyridin-6-yl)oxy)-1,2,3,4-tetrahydronaphthalen-1-yl)ureido)pyrimidine-2-carboxamide] | > 5
